From ChEMBL document CHEMBL3886572, “Cyclic amides” (2016) come the findings set out here.

For this experiment, the target named is Procathepsin L (Homo sapiens, UniProt P07711). Description: Assay buffer: 100 mM potassium phosphate pH 6.5, EDTA-Na 5 mM, Triton X-100 0.001%, DDT 5 mM. […] AMC=7-Amino-4-Methyl-Coumarin. […] Excitation 360 nm, Emission 465 nm. Enzyme is added to the substance dilutions in 96-well microtitre plates and the reaction is started with substrate.
Sequence of Procathepsin L (P07711 whole entry): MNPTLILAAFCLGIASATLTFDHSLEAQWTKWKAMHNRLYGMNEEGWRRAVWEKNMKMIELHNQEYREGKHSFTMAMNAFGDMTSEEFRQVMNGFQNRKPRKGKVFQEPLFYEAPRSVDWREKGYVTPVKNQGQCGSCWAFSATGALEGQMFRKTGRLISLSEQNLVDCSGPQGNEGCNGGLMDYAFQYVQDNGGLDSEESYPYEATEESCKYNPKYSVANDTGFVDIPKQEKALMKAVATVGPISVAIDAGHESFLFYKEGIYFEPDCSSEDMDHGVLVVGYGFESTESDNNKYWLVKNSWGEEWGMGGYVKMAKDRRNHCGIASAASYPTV

For `N#Cc1ccc2c(c1)C(=O)N[C@H](C(=O)NC1(C#N)CC1)Cc1ccc(c(Cl)c1)OC/C=C/CO2`, the half-inhibitory concentration (IC50) (in general, the concentration at which inhibition is half-maximal) turned out to be 6.9 nM.
